In patent US20220183287A1, “METHODS FOR KILLING PESTS” (The United States of America, as represented by the …, priority 2020, published 2022):
Marks after values point to notes of the source that are not given here.

Legend:
[1] = system: cucumber (Cucumis sativus) plants; assay: Greenhouse trial: cucumber plant vigor in treated soil; conditions: for Root weight Trials 1 & 2: 27-28 ml per 300 grams soil; for Shoot fresh weight Trial 1 / Shoot height Trial 1: 27 ml per 300 grams soil; for Shoot fresh weight Trial 2 / Shoot height Trial 2: 28 ml per 300 grams soil
Method: Greenhouse trials: Selected compounds and combinations were tested for effects on plant growth and on numbers of galls produced by M. incognita infecting cucumber (Cucumis sativus) plants in pots. Cucumber “Sweet Slice” seeds were planted in ProMix in 6-pack cell trays. Treatments were mixed into loamy sand at 27 ml (Trial 1) and 28 ml (Trial 2) per 300 grams soil. Meloidogyne incognita eggs were mixed into soil for a final inoculum of 5,000 per pot. Each pot received 300 grams soil per treatment, with 4 replicates per treatment in each of two trials. Pots were covered with black plastic and periodically watered to keep the soil moist. Two weeks later, one 14-day old cucumber seedling was transplanted into each pot. Two weeks after transplant, the plants were harvested. Root and shoot measurements were recorded and root galls were counted.
(§1) Statistical analyses: The data were analyzed as either a general linear model using JMP or a generalized linear model for the best distribution to fit the residual using Proc Glimmix (Sas Institute). The assumptions of the model were checked. If not met, then appropriate statistical techniques were used so that data could met the assumptions of the models. In Sas, mean comparisons were done with Sidak adjusted p-values to hold the experiment-wise error at 0.05. As indicated in the footnote to Table 5, an analysis from greenhouse trials was conducted with JMP using a Wilcoxon test with each pair nonparametric multiple comparisons (P≤0.05).
Table 5 legend: a) treatments were added at a rate of 27 ml (Trial 1) and 28 ml (Trial 2) per 300 grams soil. Four replicate pots, each containing 300 grams soil, were used per treatment in each trial. Meloidogyne incognita was mixed into soil for a final inoculum of 5,000 eggs per pot. Two weeks after soil treatment, one 14-day old cucumber seedling was transplanted into each pot. […] Untransformed data are presented to show actual numbers on roots; e) compounds differ from each other in number of carbons of aliphatic ester moiety. The number of carbons is indicated in parentheses.

[2] = system: H. glycines second-stage juveniles; assay: Microwell assay: previously hatched J2 immersed in compounds, activity and viability; conditions: for viability reduction compared with the Tween control: following the water rinse (Day 3); for inactive J2: Day 1 and Day 2; for reduction in % viable J2 compared with the Tween control: Day 3 following water rinse
Method: The isolate of H. glycines race 3, originally isolated in Maryland, was maintained on soybean (Glycine max cv. ‘Essex’). As previously described (Wen, Y., et al. Plant Disease, 103: 2191-2198 (2019)), the roots were gently rubbed in water to dislodge cysts and mature females. The egg suspensions were then poured through nested sieves (#20 over /#60; pore sizes 850 μm and 250 μm diam., respectively) into a 454 g/liter sucrose solution. After 15 min, the cysts and females and cysts that floated to the top were collected, rinsed in water, and crushed with a rubber stopper on a #60 sieve (250-μm diam. pore size) that was partially submerged in distilled water. The egg suspension was washed through nested #230 over #500 sieves (pore sizes 63 μm and 25-μm diam., respectively). The eggs were collected in distilled water, and J2 hatched as described above.
Compounds for the studies were purchased from three different companies: methyl benzoate, CAS Number 93-58-3, ≥99% purity; Tween 20, CAS Number: 9005-64-5; Tween 80, CAS Number: 9005-65-6; ethyl benzoate, CAS Number: 93-89-0, natural, ≥99% purity, FCC, FG; vinyl benzoate, CAS Number: 769-78-8, ≥99% purity; n-propyl benzoate, CAS Number: 2315-68-6, 99% purity; n-butyl benzoate, CAS Number: 136-60-7, 99% purity; benzyl benzoate, CAS Number: 120-51-4, natural, ≥99% purity, FCC, FG; methyl 2-methylbenzoate, CAS Number: 89-71-4, 99% purity; methyl 2-chlorobenzoate, CAS Number: 610-96-8, ≥98% purity; methyl 2-methoxybenzoate, CAS Number: 606-45-1, 99% purity and methyl 2-nitrobenzoate, CAS Number: 606-27-9, 98% purity were purchased from Sigma-Aldrich (St. Louis, Mo.). Compounds, iso-butyl benzoate, CAS Number 120-50-3, >98% purity; n-pentyl benzoate, CAS Number: 2049-96-9, ≥98% purity; and n-hexyl benzoate, CAS Number: 6789-88-4, ≥98% purity were purchased from Alfa Aesar (Tewksbury, Mass.). The compounds methyl 3-methoxybenzoate (methyl m-anisate), CAS Number: 5368-81-0; 97% and methyl 3-methylbenzoate (methyl m-toluate), CAS Number: 99-36-5, 97% purity were purchased from TCI America (Portland, Oreg.). All chemicals were used without further purification. Deionized water (DI) containing 1% emulsifier (v/v), Tween 20 and Tween 80, at 1:1 ratio was used to make different VOCs (volatile organic compounds) water solutions and also used as blank control.
For tests with individual compounds, the concentration of each compound was 0.1% before placement into wells; the final concentration in the wells was 0.095% after addition to eggs or J2 suspended in water. These are reported as 0.1% herein. An exception was Trial 2, M. incognita J2 activity and viability (Table 2): the final concentration was 0.1% after placement in wells. Low concentrations were selected for assays of combined compounds to determine if the combinations would increase nematotoxicity.
Laboratory assays were conducted in 96-well polystyrene plates following general procedures described in Wen et al. (2019). Each well received approximately 35 J2 (for previously hatched J2 assays) or 35 eggs that each contained either a first-stage juvenile (J1) or a J2. The plates were covered with plastic adhesive sealing film (Excel Scientific, Inc., Victorville Calif.) and then with the plate lids. Parafilm (Bemis, Neenah, Wis.) was used to seal the plates. The nematodes were then incubated at 26° C. […] Following the counts on Day 2, the treatments were removed and the J2 rinsed twice with SDW and incubated in the second rinse. […] Two trials were conducted for each assay.
as §1, with “0.05.” for “0.05. As indicated in the footnote to Table 5, an analysis from greenhouse trials was conducted with JMP using a Wilcoxon test with each pair nonparametric multiple comparisons (P≤0.05).”

M. incognita juveniles = conditions: MB isolated from Buddleja crispa; laboratory assays; cited from earlier work
[3] = 0.1%, previously hatched J2 in aqueous solution
[4] = Heterodera glycines, 72 h, read-out: % Viable Day 3 rinsed

Row | Structure (SMILES) | Root weight Trials 1 & 2 ([1]; 0.05%) | Shoot fresh weight Trial 1 ([1]; 0.05%) | Shoot height Trial 1 ([1]; 0.05%) | Shoot fresh weight Trial 2 ([1]; 0.05%) | Shoot height Trial 2 ([1]; 0.05%) | Root weight Trials 1 & 2 ([1]; 0.1%) | Shoot fresh weight Trial 1 ([1]; 0.1%) | Shoot height Trial 1 ([1]; 0.1%) | Shoot fresh weight Trial 2 ([1]; 0.1%) | Shoot height Trial 2 ([1]; 0.1%) | % Active Day 1 [2, 3] | % Active Day 2 [2, 3] | viability at 0.1 % [2, 4] [%] | inactive J2 ([2]; 0.1%) [%] | reduction in % viable J2 compared with the Tween control ([2]; 0.1%) [%] | also measured
1 | CCOC(=O)c1ccccc1 [EB, Ethyl benzoate] | 3.2 ^ab g | 2.8 ^a g | 7.1 ^ab cm | 4.7 ^a g | 7.5 ^a cm | 3.1 ^ab g | 3.0 ^a g | 6.4 ^b cm | 4.0 ^ab g | 8.1 ^a cm | 2.7 ^e % | 1.8 ^g % | 4.4 | – | – | % Active Day 1 ([2]; 0.025% final concentration): 73.9 ^a %; viability at 0.025 % [2, 4]: 52.8%
2 | COC(=O)c1cccc(C)c1 [M3MB, Methyl 3-methylbenzoate] | 3.3 ^a g | 3.3 ^a g | 6.8 ^ab cm | 4.3 ^ab g | 7.9 ^a cm | – | 3.2 ^a g | 6.9 ^ab cm | 3.6 ^ab g | 7.2 ^a cm | 10.1 ^d % | 7.6 ^g % | 8.5 | – | – | % Active Day 1 ([2]; 0.015% final concentration): 71.9 ^a %; viability at 0.015 % [2, 4]: 58.7%
3 | COC(=O)c1ccccc1 [MB, Methyl benzoate] | 3.0 ^ab g | 3.2 ^a g | 7.7 ^ab cm | 3.9 ^ab g | 8.0 ^a cm | 2.9 ^ab g | 3.0 ^a g | 7.2 ^ab cm | 4.0 ^ab g | 8.3 ^a cm | 0 ^e % | 0 ^h % | 0 | 100 | 100 | % Active Day 1 ([2]; 0.0095% final concentration): 49.7 ^bc %; % Active Day 2 ([2]; 0.0095% final concentration): 27.9 ^bc %; viability reduction compared with the Tween control ([2]; 0.0095%): 32%; viability at 0.0095 % [2, 4]: 43.8%; nematocidal activity (M. incognita juveniles): demonstrated nematocidal activity
4 | C=COC(=O)c1ccccc1 [VB, Vinyl benzoate] | 3.1 ^ab g | 3.2 ^a g | 6.7 ^ab cm | 4.3 ^ab g | 8.3 ^a cm | – | 3.0 ^a g | 7.2 ^ab cm | 3.1 ^b g | 6.8 ^a cm | 0 ^e % | 0 ^h % | 0 | 100 | 100 | % Active Day 1 ([2]; 0.008% final concentration): 42.8 ^bc %; % Active Day 2 ([2]; 0.008% final concentration): 34.7 ^b %; viability reduction compared with the Tween control ([2]; 0.008%): 30%; viability at 0.008 % [2, 4]: 45%
